Experimental data taken from patent US7842812B2, “Substituted 5-aminomethy1-1H-pyrrole-2-carboxylic acid amides” (Gruenenthal GmbH, priority 2004, dated 2010).

What follows are compounds tested against T1, NA transporter (Rattus norvegicus, UniProt Q63380) (assay: Noradrenalin (NA) uptake inhibition in rat brain synaptosomes (hypothalamus)). Details: 10 μM.
T1 construct: from tissue; host or cells: rat brain synaptosomes (P2 fraction) from hypothalamus
T1 sequence (Q63380 1-617): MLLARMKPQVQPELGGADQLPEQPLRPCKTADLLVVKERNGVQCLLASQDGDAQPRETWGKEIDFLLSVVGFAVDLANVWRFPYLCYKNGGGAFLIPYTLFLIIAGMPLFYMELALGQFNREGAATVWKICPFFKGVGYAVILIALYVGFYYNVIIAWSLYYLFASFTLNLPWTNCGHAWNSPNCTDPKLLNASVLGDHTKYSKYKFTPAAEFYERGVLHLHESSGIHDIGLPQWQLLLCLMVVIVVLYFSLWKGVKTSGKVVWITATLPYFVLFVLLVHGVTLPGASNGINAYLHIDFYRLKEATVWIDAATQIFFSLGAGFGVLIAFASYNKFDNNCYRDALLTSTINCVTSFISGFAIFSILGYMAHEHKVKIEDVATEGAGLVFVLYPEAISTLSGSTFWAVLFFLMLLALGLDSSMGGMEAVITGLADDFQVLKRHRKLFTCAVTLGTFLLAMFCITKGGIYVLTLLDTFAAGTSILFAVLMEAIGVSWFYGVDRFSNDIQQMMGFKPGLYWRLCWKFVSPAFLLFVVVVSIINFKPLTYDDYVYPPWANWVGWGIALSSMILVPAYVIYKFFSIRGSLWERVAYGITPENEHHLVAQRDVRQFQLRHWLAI
Format: biochemical
Excerpt: (§1) b) Method for Determining Noradrenalin and 5-HT Uptake Inhibition:
(§2) Synaptosomes from rat brain regions are freshly isolated for in vitro studies, as described in the publication “The isolation of nerve endings from brain” by E. G. Gray and V. P. Whittaker, J. Anatomy 96, pages 79-88, 1962, the disclosure of which is hereby incorporated by reference. The tissue (hypothalamus for the determination of noradrenalin uptake inhibition and medulla and pons for the determination of 5-HT uptake inhibition) is homogenized in ice-cooled 0.32 M sucrose (100 mg of tissue/1 ml) in a glass homogenizer with Teflon pestle using five complete up and down strokes at 840 revolutions/minute. The homogenate is centrifuged at 4° C. for 10 minutes at 1000 g. After subsequent centrifugation at 17000 g for 55 minutes, the synaptosomes (P2 fraction) are obtained, which are resuspended in 0.32 M […] (0.5 ml/100 mg of original weight).
The particular uptake is measured in a 96-well microtitre plate. The volume is 250 μl and the incubation proceeds at room temperature (approx. 20-25° C.) under an O2 atmosphere. The incubation time is 7.5 minutes for [^3H]-NA and 5 minutes for [^3H]-5-HT. The 96 samples are then filtered through a Unifilter GF/B® microtitre plate (Packard) and washed with […] of incubated buffer using a “Brabdel MPXRI-96T Cell-Harvester”. The Unifilter GF/B plate is dried for 1 hour at 55° C. The plate is then sealed with a Back Seal® (Packard) and 35 μl of scintillation fluid are added per well (Ultima Gold®, Packard). After sealing with a Top Seal® (Packard) and establishing an equilibrium (around 5 hours), radioactivity is determined in a “Trilux 1450 Microbeta” (Wallac).
The quantity of protein used in the above determination corresponds to the values known from the literature, as for example described in “Protein measurement with the folin phenol reagent”, Lowry et al., J. Biol. Chem., 193, 265-275, 1951. A detailed description of the method may additionally be found in the literature, for example in M. Ch. Frink, H.-H. Hennies, W. Engelberger, M. Haurand and B. Wilffert (1996) Arzneim.-Forsch./Drug Res. 46 (III), 11, 1029-1036, the disclosures of which are hereby incorporated by reference.
The following characteristics were determined for the NA or 5-HT transporter: NA uptake: Km=0.32±0.11 μM 5HT uptake: Km=0.084±0.011 μM. c) Investigation of Analgesic Efficacy by the Writhing Test
(§3) The 5-HT reuptake inhibition and noradrenalin reuptake inhibition of the 5-aminomethyl-1H-pyrrole-2-carboxylic acid amides according to the invention were determined as described above.
In the case of CN(C(=O)c1ccc(CN2CCC(Cc3ccccc3)CC2)n1C)C1CCCCC1 [Example 7, 5-(4-Benzyl-piperidin-1-ylmethyl)-1-methyl-1H-pyrrole-2-carboxylic acid cyclohexyl-methyl amide], the NA uptake inhibition is reported as 62 % inhibition. Work on CC1CCCCN1Cc1ccc(C(=O)N(Cc2ccccc2)C(C)C)n1C (stereo not drawn) [Example 9, 1-Methyl-5-(2-methyl-piperidin-1-ylmethyl)-1H-pyrrole-2-carboxylic acid benzyl-isopropyl amide] yielded an NA uptake inhibition of 59 % inhibition. For “1-Methyl-5-pyrrolidin-1-ylmethyl-1H-pyrrole-2-carboxylic acid benzyl amide [Example 4]”, the NA uptake inhibition was 82 % inhibition. Compound CCOC(=O)C1CCN(Cc2ccc(C(=O)N(Cc3ccccc3)Cc3ccccc3)n2C)CC1 [Example 6, 1-(5-Dibenzylcarbamoyl-1-methyl-1H-pyrrol-2-ylmethyl)-piperidine-4-carboxylic acid ethyl ester] has an NA uptake inhibition of 74 % inhibition. Work on CC1CCCCN1Cc1ccc(C(=O)N(C)Cc2ccccc2)n1C (stereo not drawn) [Example 5, 1-Methyl-5-(2-methyl-piperidin-1-ylmethyl)-1H-pyrrole-2-carboxylic acid benzyl-methyl amide] yielded an NA uptake inhibition of 81 % inhibition. Work on Cn1c(CN2CCC(Cc3ccccc3)CC2)ccc1C(=O)N1CCCCC1 [Example 8, [5-(4-Benzyl-piperidin-1-ylmethyl)-1-methyl-1H-pyrrol-2-yl]-piperidin-1-yl methanone] yielded an NA uptake inhibition of 61 % inhibition. Compound CC1CCN(Cc2ccc(C(=O)N(C)Cc3ccccc3)n2C)CC1 [Example 1, 1-Methyl-5-(4-methyl-piperidin-1-ylmethyl)-1H-pyrrole-2-carboxylic acid benzyl-methyl amide] has an NA uptake inhibition of 81 % inhibition.

Each compound was assayed against T2, 5-HT transporter (Rattus norvegicus, UniProt P31652) (assay: 5-HT uptake inhibition in rat brain synaptosomes (medulla and pons)). Details: 10 μM.
T2 construct: from tissue; host or cells: rat brain synaptosomes (P2 fraction) from medulla and pons
T2 sequence (P31652 whole entry): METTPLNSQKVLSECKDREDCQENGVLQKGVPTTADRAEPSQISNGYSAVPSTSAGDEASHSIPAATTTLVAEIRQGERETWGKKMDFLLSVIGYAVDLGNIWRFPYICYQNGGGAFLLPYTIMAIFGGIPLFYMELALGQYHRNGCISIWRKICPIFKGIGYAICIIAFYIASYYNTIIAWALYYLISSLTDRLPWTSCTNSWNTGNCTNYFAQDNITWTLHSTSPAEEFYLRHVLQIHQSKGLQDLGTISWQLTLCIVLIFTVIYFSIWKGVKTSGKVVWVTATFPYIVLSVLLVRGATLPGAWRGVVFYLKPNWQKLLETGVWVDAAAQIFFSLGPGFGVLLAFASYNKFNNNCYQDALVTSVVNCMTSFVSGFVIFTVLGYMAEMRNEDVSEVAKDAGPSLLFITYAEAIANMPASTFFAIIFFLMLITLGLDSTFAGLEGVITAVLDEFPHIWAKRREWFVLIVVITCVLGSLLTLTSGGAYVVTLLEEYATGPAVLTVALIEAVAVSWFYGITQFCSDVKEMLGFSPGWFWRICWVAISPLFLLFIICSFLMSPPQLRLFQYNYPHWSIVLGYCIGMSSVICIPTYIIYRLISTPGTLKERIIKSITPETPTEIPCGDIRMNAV
Format: biochemical
Excerpt: as §1, §2
The particular uptake is measured in a 96-well microtitre plate. The volume is 250 μl and the incubation proceeds at room temperature (approx. 20-25° C.) under an O2 atmosphere. The incubation time is 7.5 minutes for [^3H]-NA and 5 minutes for [^3H]-5-HT. The 96 samples are then filtered through a Unifilter GF/B® microtitre plate (Packard) and washed with […] of incubated buffer using a “Brabdel MPXRI-96T Cell-Harvester”. The Unifilter GF/B plate is dried for 1 hour at 55° C. […] After sealing with a Top Seal® (Packard) and establishing an equilibrium (around 5 hours), radioactivity is determined in a “Trilux 1450 Microbeta” (Wallac).
The quantity of protein used in the above determination corresponds to the values known from the literature, as for example described in “Protein measurement with the folin phenol reagent”, Lowry et al., J. Biol. Chem., 193, 265-275, 1951. […]
as §3
In the case of Cn1c(CN2CCCCCC2)ccc1C(=O)N1CCCC1 [Example 2, (5-Azepan-1-ylmethyl-1-methyl-1H-pyrrol-2-yl)-pyrrolidin-1-yl methanone], the 5HT uptake inhibition is reported as 60 % inhibition. In the case of CC1CCCCN1Cc1ccc(C(=O)N2CCCC2)n1C (stereo not drawn) [Example 3, [1-Methyl-5-(2-methyl-piperidin-1-ylmethyl)-1H-pyrrol-2-yl]-pyrrolidin-1-yl methanone], the 5HT uptake inhibition is reported as 52 % inhibition. For CC1CCN(Cc2ccc(C(=O)N(C)Cc3ccccc3)n2C)CC1 [Example 1, 1-Methyl-5-(4-methyl-piperidin-1-ylmethyl)-1H-pyrrole-2-carboxylic acid benzyl-methyl amide], the 5HT uptake inhibition was 70 % inhibition.

What follows are compounds tested against T3, human μ opioid receptor (Homo sapiens, UniProt P35372) (assay: Affinity for human μ opioid receptor ([3H]-naloxone displacement, CHO-K1 membrane preparation, SPA)). Details: percentage inhibition of specific [3H]-naloxone binding; compound concentration 1 μmol/l; read-out: OR μ1 human naloxone inhibition [%].
T3 construct: purchased NEN, Zaventem, Belgium RB-HOM; host or cells: CHO-K1 cells (membrane preparation)
T3 sequence (P35372 whole entry): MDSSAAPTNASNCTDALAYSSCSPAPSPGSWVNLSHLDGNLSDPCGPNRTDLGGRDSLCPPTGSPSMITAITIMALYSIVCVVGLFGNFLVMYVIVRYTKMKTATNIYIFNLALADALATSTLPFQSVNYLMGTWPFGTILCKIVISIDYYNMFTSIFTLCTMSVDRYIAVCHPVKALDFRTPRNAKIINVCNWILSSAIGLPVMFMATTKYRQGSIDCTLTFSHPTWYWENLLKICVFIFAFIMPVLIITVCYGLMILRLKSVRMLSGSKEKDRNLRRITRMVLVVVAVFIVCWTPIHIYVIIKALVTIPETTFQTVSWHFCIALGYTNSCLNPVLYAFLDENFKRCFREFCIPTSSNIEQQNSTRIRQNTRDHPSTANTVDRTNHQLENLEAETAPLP
Experimental: a) Method for Determining Affinity for Human μ Opioid Receptor
Receptor affinity for the human μ opioid receptor is determined in a homogeneous batch in microtitre plates. […] Once the ninety minute incubation time had elapsed, the microtitre plates were centrifuged off for 20 minutes at 1000 g and the radioactivity measured in a β-Counter (Microbeta-Trilux, from PerkinElmer Wallac, Freiburg, Germany). The percentage displacement of the radioactive ligand from its binding to the human μ opiate receptor is determined at a concentration of the compounds to be tested of 1 μmol/l and stated as percentage inhibition of specific binding. […]
The affinity of the 5-aminomethyl-1H-pyrrole-2-carboxylic acid amides according to the invention for the μ receptor was determined as described above.
CC1CCCCN1Cc1ccc(C(=O)N2CCCCC2)n1C (stereo not drawn) [Example 10, [1-Methyl-5-(2-methyl-piperidin-1-ylmethyl)-1H-pyrrol-2-yl]-piperidin-1-yl methanone] was tested, and the inhibition at 1 µM was 86%. With CC1CCCCN1Cc1ccc(C(=O)N2CCCC2)n1C (stereo not drawn) [Example 3, [1-Methyl-5-(2-methyl-piperidin-1-ylmethyl)-1H-pyrrol-2-yl]-pyrrolidin-1-yl methanone] the inhibition at 1 µM was 83%.
